From patent US10655153B2, “Chemoenzymatic synthesis of peptide beta-lactones and beta-hydroxy acids” (Washington University, priority 2017, dated 2020)
“Also recorded” adds a separate entry of the source.

What was measured:
[1] = tested on: E. coli ATCC 25922; assay: Antibiotic susceptibility testing, growth curves by OD600; type: cell-based; settings: for effect on E. coli growth (OD600): 150 μM, M9 minimal media, compared to buffer control
Method: (§1) Bacterial strains (E. coli 29522 and E. coli X580) were grown from frozen glycerol stocks in LB media overnight at 37° C. with shaking. These starter cultures were used to inoculate fresh LB broth or M9 minimal media broth at an OD600 of 0.3. Each well of a 96-well plate was filled with 100 μL of sterile media (LB or M9). A sterile solution of RC-Obi or RO-Obi in LB or M9 media was added to the first well of each row and was serially diluted two-fold down the entire row creating a compound concentration gradient of 0.3-0.0025 mM.
(§2) Each well of the plate was then filled with 100 μL of the OD600 0.3 bacterial cell suspensions to give a final volume of 200 μL per well. The plates were incubated at 37° C. and the OD600 of each well was measured every 30 minutes over 24 hours. The plate was shaken briefly prior to each measurement to ensure an even cell suspension. All growth curves were generated in triplicate.

[2] = tested on: 6× passaged E. coli ATCC 25922; assay: Growth curves of 6× passaged E. coli in the presence of RC-Obi; type: cell-based; settings: 6 overnight cycles in LB broth with 0.25 mM RC-Obi, then varying concentrations in LB broth
Method: (§3) E. coli ATCC 25922 was passaged in LB broth through 6 overnight cycles in the presence of 0.25 mM RC-Obi β-lactone with fresh doses of antibiotic added every 18 hours for 6 days straight.

[3] = tested on: E. coli X580; assay: Growth curves of β-lactam hypersensitive E. coli X580; type: cell-based; settings: varying concentrations of RC-Obi
Method: as §1, §2, §3

[4] = tested on: E. coli ATCC 25922; assay: Fluorescence microscopy of fixed cells stained with DAPI and FM 4-64fx; type: cell-based; settings: RC-Obi 0.1 mM, RO-Obi 0.5 mM, 2 hours at 37° C.
Method: The E. coli cells were also subjected to fluorescence microscopy after treatment with RC-Obi or RO-Obi. E. coli ATCC 29522 cells were grown in LB media for 8 hours at 37° C. then plated on agar media and incubated overnight at 37° C. A single colony was transferred into test tube with fresh LB media and allowed to grow to 0.3 OD600 at 37° C. Cells were diluted by a factor of 10, allowed to grow to OD600 0.3 again. Aliquots of the cell suspension (2 mL each) were treated with RC-Obi (0.1 mM), RO-Obi (0.5 mM), ampicillin (50 μg/mL), or buffer control and incubated for 2 hours at 37° C. Culture aliquots of 250 μL were then used for staining and fluorescence microscopy. Cell membranes and DNA were labeled with the fixable dyes FM 4-64fx and DAPI, respectively, according to the manufacturer's instructions. Cells were fixed with 2.6% paraformaldehyde+0.008% glutaraldehyde as previously described. Fixed cells were imaged on 1% agarose pads with an Olympus BX51 microscope equipped with a CCD OrcaERG camera (Hamamatsu Photonics, Bridgewater, N.J.), an Olympus Plan N 100X/1.25 Oil Ph3 objective, and an X-Cite 120 LED light source (Lumen Dynamics). Nikon elements were used for image capture using the DAPI and rhodamine filter sets from Chroma. Images were processed using NIS—Elements Basic Research Microscope Imaging Software (Nikon Corp.).

[5] = reported; cited from earlier work
[6] = tested on: Streptococcus pneumonia; settings: reported; cited from earlier work
[7] = previous studies; cited from earlier work

SMILES	effect on E. coli growth (OD600) [1]	time until growth recovered to normal levels ([1]; after treatment with RC-Obi) [h]	effect on E. coli growth (OD600) at various concentrations ([1]; various concentrations of RC-Obi, or buffer control)	susceptibility after passaging [2]	sensitivity compared to E. coli ATCC 29522 [3]	cell clumping phenotype [4]	antibacterial activity [5]	efficacy in murine septicemia model [6]	hydrolysis in aqueous solutions [7]
O=C(N[C@@H]1C(=O)O[C@@H]1Cc1ccc([N+](=O)[O-])cc1)c1cccc(O)c1O [RC-Obi, obafluorin]	inhibited the growth of E. coli; also recorded: halted E. coli growth	~10	inhibited the growth of E. coli in a dose-dependent manner	still susceptible to the antibiotic	enhanced sensitivity and slower growth recovery	induced a cell clumping phenotype; also recorded: severe cell clumping	broad-spectrum antibacterial activity	demonstrated efficacy	hydrolyzes rapidly
O=C(NC(C(=O)O)C(O)Cc1ccc([N+](=O)[O-])cc1)c1cccc(O)c1O (centres unmarked) [RO-Obi]	minimal effect on E. coli growth	–	–	–	–	moderate cell clumping	–	–	–
